A short description of one data set: Oral exposures in mice. The settings on record: oral gavage, non-tumor-bearing male mice (Table S1). The format is in vivo.
A further data set relates to VCaP cell line. As to the kind of experiment: Cell growth inhibition in the VCaP cell line. The format is cell-based, human.

As to `N#Cc1ccc(O[C@H]2CC[C@H](NC(=O)c3ccc(NCCCCCNc4ccc5c(c4)C(=O)N(C4CCC(=O)NC4=O)C5=O)cc3)CC2)cc1Cl` (stereo partly drawn) [Compound 13, N-((1R,4R)-4-(3-Chloro-4-cyanophenoxy)cyclohexyl)-4-((5-((2-(2,6-dioxopiperidin-3-yl)-1,3-dioxoisoindolin-5-yl)amino)pentyl)-amino)benzamide], in “Oral exposures in mice”, the “oral exposures in mice” value is listed as “very low”.
For `N#Cc1ccc(N[C@H]2CC[C@H](NC(=O)c3ccc(N4CCC(N5CCN(c6ccc7c(c6)C(=O)N(C6CCC(=O)NC6=O)C7=O)CC5)CC4)cc3)CC2)cc1Cl` (stereo partly drawn) [Compound 34, N-(1R,4R)-4-(((3-Chloro-4-cyanophenyl)amino)cyclohexyl)-4-(4-(4-(2-(2,6-dioxopiperidin-3-yl)-1,3-dioxoisoindolin-5-yl)piperazin-1-yl)piperidin-1-yl)benzamide], in the data set with VCaP cell line, the “times less potent than compounds 35 and 36 (cell growth inhibition)” value is on record as roughly 10.
On to `CCCN(c1ccc(C#N)c(Cl)c1)[C@H]1CC[C@H](NC(=O)c2ccc(N3CCC(N4CCN(c5ccc6c(c5)C(=O)N(C5CCC(=O)NC5=O)C6=O)CC4)CC3)cc2)CC1` (stereo partly drawn) [Compound 37, N-(1R,4R)-4-(((3-Chloro-4-cyanophenyl)(propyl)amino)-cyclohexyl)-4-(4-(4-(2-(2,6-dioxopiperidin-3-yl)-1,3-dioxoisoindolin-5-yl)piperazin-1-yl)piperidin-1-yl)benzamide], for which the “times less potent than compounds 35 and 36 (cell growth inhibition)” value with VCaP cell line is given as greater than 40.

The values above are taken from article PMC8855934 (Journal of medicinal chemistry, 2021).
